How the values were obtained:
[1] = target: T1, human serotonin 5-HT2C receptor (Homo sapiens, UniProt P28335); assay: Saturation binding of [125I]DOI at the human 5-HT2C receptor; conditions: saturation binding with increasing concentrations of [125I]DOI; read-out: dissociation constant, KD
T1 construct: expressed in transfected cells; host or cells: CHO (Chinese Hamster Ovary) cells; membrane preparation
T1 sequence (P28335 33-458): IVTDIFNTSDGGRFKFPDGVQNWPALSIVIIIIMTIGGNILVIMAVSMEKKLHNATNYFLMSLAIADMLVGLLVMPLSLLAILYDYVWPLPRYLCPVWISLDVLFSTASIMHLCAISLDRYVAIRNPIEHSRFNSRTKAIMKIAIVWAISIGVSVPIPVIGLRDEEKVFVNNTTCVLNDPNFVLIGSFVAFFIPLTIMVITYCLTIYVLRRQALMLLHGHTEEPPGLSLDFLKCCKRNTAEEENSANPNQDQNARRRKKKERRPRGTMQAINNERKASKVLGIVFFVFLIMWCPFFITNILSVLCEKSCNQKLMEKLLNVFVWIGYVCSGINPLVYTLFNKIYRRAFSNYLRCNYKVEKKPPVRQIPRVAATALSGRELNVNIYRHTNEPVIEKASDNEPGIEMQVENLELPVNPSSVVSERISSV
Text: To evaluate the affinity of various compounds of formula I for activity at the 5-HT2C receptor, a CHO (Chinese Hamster Ovary) cell line transfected with the cDNA expressing the human 5-hydroxytryptamine-2C (h5-HT2C) receptor is maintained in DMEM (Dulbecco's Modified Eagle Media) supplied with fetal calf serum, glutamine, and the markers: guaninephosphoribosyl transferase (GTP) and hypoxanthinethymidine (HT). The cells are allowed to grow to confluence in large culture dishes with intermediate changes of media and splitting. Upon reaching confluence, the cells are harvested by scraping. The harvested cells are suspended in half volume of fresh physiological phosphate buffered saline (PBS) solution and centrifuged at low speed (900×g). This operation is repeated once. The collected cells are then homogenized with a polytron at setting #7 for 15 sec in ten volumes of 50 mM Tris.HCl, pH 7.4 and 0.5 mM EDTA. […] The resulting pellet is resuspended in a small volume of Tris.HCl buffer and the tissue protein content is determined in aliquots of 10-25 μL volumes. […]
The dissociation constant, KD of [^125I] […] The bound complex caught on the filter disk is dried in a vacuum oven heated to 60° C. and the radioactivity measured by liquid scintillation with 40 μL Microscint-20 scintillant in a Packard TopCount® equipped with six (6) photomultiplier detectors.

[2] = target: T2, human 5-hydroxytryptamine-2C (h5-HT2C) receptor (Homo sapiens, UniProt P28335); assay: [125I]DOI competition binding at h5-HT2C receptor in transfected CHO cell membranes; conditions: [125I]DOI displacement, CHO membranes expressing h5-HT2C; 95% confidence interval in adjacent column
T2 construct: expressed in transfected cells; host or cells: CHO (Chinese Hamster Ovary) cells; membrane preparation
T2 sequence (P28335 33-458): T1 sequence (P28335 33-458)

Compound	Kd [1] [nM]	Ki [2] [nM]
COc1cc(CC(C)N)c(OC)cc1I (centres unmarked) [[^125I] DOI]	0.4	
CSc1ccc2c(c1)C(N1CCN(C)CC1)Cc1ccccc1S2 (centres unmarked) [Methiothepin]		4.6

— patent publication US7402687B2, “Dihydrobenzofuran derivatives and uses thereof” (Wyeth, priority 2005, dated 2008)
